What is called solubility is the concentration that dissolves in the medium under given conditions. A higher solubility goes with much dissolved substance.

Consider two compounds from patent publication US8106054B2, “Crystalline pyridazine compound” (priority 2007, dated 2012).

One series can be described thus: physchem. It counts as physicochemical. Conditions: pH 2, aqueous buffer.
Series [1] can be described thus: Phase-1 first-in-human trial, pharmacokinetics. The format is in vivo.
From the text: A randomized, double-blind, placebo controlled trial was designed to evaluate the safety/tolerability, pharmacokinetics and antiviral activity of single (in Part A) and multiple (in Part B) doses of Compound (1) (oleic acid solution, above) in subjects chronically infected with HCV genotype 1 (GT-1) without decompensated cirrhosis.
In completed Part A, five successive cohorts of 6 subjects were randomized (5:1) to receive single ascending doses of Compound 1 (40, 120, 240, 240-with food, or 480 mg) or placebo. In ongoing Part B, four successive cohorts of 12 subjects are randomized (10:2) to receive multiple ascending doses of Compound 1 (40 mg BID, 120 mg BID, 240 mg QD, 240 mg BID) or placebo, over 8 days.
On the set-up of series [2]: species or system human. The settings on record: in vivo.
The subject of series [3] is HCV genotype 1 (Con-1/lucneo) replicon. The format is cell-based. The settings on record: 3 days, absence of HSA. As to the method:
HCV genotype 1 (Con-1/lucneo) and 1a (H77/neo) replicon cells were incubated with serial dilutions of compound (1) 2′C-methyl adenosine (2′CMeA) or IFNα for 3 days in the absence or presence of 40 mg/mL human serum albumin (HSA).

In brackets after ≈: the same amount, converted by molar mass.

In the series “physchem”, `Fc1ccccc1-c1nc2ccn(Cc3ccc(-c4ccc(C(F)(F)F)cc4C(F)(F)F)nn3)cc-2n1` [Compound 1, 5-((6-(2,4-Bis(trifluoromethyl)phenyl]pyridazin-3-yl)methyl)-2-(2-fluorophenyl)-5H-imidazo[4,5-c]pyridine] showed a solubility of 458 µg/mL (≈ 885 µM). In addition, the “mean concentration 24 hours after dosing relative to protein binding adjusted in vitro HCV GT-1 replicon EC50” value in series [1] (240 mg fasted single dose) is recorded as about 7 fold. The “increase in systemic exposure with a high fat meal” value in series [1] (single dose 240 mg with food vs fasted) is “approximately 2 fold”. Also, the “tolerability of single doses” value in series [2] was “well tolerated, with no serious or treatment-limiting adverse events (AEs) reported”.
In the case of IFN-α, in series [3], the “EC50 HCV 1-lucneo” value is 2 IU/mL.
